Experimental data taken from ChEMBL document CHEMBL1122093, “Preparation of the alpha and beta anomers of 9-(3,5-dideoxy-D-glycero-pent-4-enofuranosyl)adenine and their activity with leukemia L1210 cells in vitro” (1982).

How the values were obtained:
L1210 [1] = experiment: In vitro for the inhibitory activity against L1210 leukemia cells at a concentration 3.2x10 E -4 M; type: functional; conditions: Mus musculus
L1210 [2] = experiment: In vitro for the inhibitory activity against L1210 leukemia cells at a concentration 3.4x10 E -4 M; type: functional; conditions: Mus musculus

| Compound | inhibition at 320 µM (L1210 [1]) [%] | inhibition at 340 µM (L1210 [2]) [%] |
| --- | --- | --- |
| C=C1C[C@@H](O)[C@H](n2cnc3c(N)ncnc32)O1 | 50 | – |
| C=C1C[C@@H](O)[C@@H](n2cnc3c(N)ncnc32)O1 | – | 50 |
